Laboratory results published in paper PMC10818749, “Toxicity Studies of Cardiac-Targeting Peptide Reveal a Robust Safety Profile” (Pharmaceutics, 2024).
Ends that are not written are not given here.

How the values were obtained:
[1] = target: HEK-Kv4.3/KChIP2 (Homo sapiens, UniProt Q9NS61+Q9UK17); details: CTP 0.1 to 30 µM; HEK cells; step to 40mV; 0.1% Pluronic F-68
[2] = target: HEK-Cav1.2 (Homo sapiens, UniProt Q13936); details: CTP 0.1 to 30 µM; HEK cells; -100mV to +20mV; 0.1% Pluronic F-68
[3] = target: CHO-hERG (Homo sapiens, UniProt Q12809)
[4] = target: T1, ADRB1 (Homo sapiens, UniProt P08588); assay: ADRB1 GPCR cAMP modulation assay; format: cell-based; details: compared to the controls
T1 construct: host or cells: cAMP Hunter cell line
Procedure: (§1) GPCR cAMP Modulation Assays: cAMP Hunter cell lines were grown, plated, and subjected to Eurofins’ DiscoverX HitHunter cAMP XS+ assay. Gs agonist activity, Gi agonist activity, and antagonist activity-induced assays were read using chemiluminescent signal detection. The percentage of activity was calculated for Gs and Gi agonist assays, and the percentage of inhibition was calculated for Gs antagonist assays. […]
(§2) cAMP Second ary Messenger Assay pound results in the release of calcium from intracellular stores and DiscoverX has developed a panel of cell lines stably expressing non- an increase in dye fluorescence that is measured in real-time. tagged GPCRs that endogenously signal through cAMP. […]
(§3) The enzyme is split into two complementary portions: Enzyme Ac-ceptor (EA) and Enzyme Donor (ED). […] Active enzyme can then convert a chemilumines-cent substrate, generating an output signal detectable on a standard The NHR is tagged with the ProLink™ (PK) component of our EFC microplate reader. assay system, and the SRCP domain is fused to the Enzyme Ac-ceptor component (EA) expressed in the nucleus. […]

[5] = target: T2, HEK-Nav1.5 (Late, Antagonist) (Homo sapiens, UniProt Q14524); format: cell-based; details: CTP 0.1 to 30 µM; HEK cells; late current, ramp with 50nM ATXII; antagonist; 0.1% Pluronic F-68
T2 construct: CYL7004QB2DR (late); host or cells: HEK

[6] = target: CHO-KCNQ1/minK (Homo sapiens, UniProt P15382+P51787); details: CTP 0.1 to 30 µM; CHO cells; step to +60mV; 0.1% Pluronic F-68
[7] = target: T3, ADRA2A (Homo sapiens, UniProt P08913); assay: ADRA2A GPCR cAMP modulation assay; format: cell-based; details: compared to the controls
T3 construct: host or cells: cAMP Hunter cell line
Procedure: as §1, §2, §3

T1 sequence (P08588 whole entry): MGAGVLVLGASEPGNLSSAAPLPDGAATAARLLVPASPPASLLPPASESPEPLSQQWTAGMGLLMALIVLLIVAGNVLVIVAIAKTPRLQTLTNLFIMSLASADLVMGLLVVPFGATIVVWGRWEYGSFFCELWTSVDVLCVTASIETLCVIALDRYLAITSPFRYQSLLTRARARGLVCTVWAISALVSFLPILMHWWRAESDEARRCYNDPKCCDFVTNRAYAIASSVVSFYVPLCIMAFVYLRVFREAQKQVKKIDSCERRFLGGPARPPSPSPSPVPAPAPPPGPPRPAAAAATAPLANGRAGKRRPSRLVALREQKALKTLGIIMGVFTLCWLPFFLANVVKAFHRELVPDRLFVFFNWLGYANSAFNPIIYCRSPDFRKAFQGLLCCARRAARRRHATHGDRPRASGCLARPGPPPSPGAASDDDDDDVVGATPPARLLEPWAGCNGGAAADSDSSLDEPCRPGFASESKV
Chain of HEK-Cav1.2 (Q13936 whole entry): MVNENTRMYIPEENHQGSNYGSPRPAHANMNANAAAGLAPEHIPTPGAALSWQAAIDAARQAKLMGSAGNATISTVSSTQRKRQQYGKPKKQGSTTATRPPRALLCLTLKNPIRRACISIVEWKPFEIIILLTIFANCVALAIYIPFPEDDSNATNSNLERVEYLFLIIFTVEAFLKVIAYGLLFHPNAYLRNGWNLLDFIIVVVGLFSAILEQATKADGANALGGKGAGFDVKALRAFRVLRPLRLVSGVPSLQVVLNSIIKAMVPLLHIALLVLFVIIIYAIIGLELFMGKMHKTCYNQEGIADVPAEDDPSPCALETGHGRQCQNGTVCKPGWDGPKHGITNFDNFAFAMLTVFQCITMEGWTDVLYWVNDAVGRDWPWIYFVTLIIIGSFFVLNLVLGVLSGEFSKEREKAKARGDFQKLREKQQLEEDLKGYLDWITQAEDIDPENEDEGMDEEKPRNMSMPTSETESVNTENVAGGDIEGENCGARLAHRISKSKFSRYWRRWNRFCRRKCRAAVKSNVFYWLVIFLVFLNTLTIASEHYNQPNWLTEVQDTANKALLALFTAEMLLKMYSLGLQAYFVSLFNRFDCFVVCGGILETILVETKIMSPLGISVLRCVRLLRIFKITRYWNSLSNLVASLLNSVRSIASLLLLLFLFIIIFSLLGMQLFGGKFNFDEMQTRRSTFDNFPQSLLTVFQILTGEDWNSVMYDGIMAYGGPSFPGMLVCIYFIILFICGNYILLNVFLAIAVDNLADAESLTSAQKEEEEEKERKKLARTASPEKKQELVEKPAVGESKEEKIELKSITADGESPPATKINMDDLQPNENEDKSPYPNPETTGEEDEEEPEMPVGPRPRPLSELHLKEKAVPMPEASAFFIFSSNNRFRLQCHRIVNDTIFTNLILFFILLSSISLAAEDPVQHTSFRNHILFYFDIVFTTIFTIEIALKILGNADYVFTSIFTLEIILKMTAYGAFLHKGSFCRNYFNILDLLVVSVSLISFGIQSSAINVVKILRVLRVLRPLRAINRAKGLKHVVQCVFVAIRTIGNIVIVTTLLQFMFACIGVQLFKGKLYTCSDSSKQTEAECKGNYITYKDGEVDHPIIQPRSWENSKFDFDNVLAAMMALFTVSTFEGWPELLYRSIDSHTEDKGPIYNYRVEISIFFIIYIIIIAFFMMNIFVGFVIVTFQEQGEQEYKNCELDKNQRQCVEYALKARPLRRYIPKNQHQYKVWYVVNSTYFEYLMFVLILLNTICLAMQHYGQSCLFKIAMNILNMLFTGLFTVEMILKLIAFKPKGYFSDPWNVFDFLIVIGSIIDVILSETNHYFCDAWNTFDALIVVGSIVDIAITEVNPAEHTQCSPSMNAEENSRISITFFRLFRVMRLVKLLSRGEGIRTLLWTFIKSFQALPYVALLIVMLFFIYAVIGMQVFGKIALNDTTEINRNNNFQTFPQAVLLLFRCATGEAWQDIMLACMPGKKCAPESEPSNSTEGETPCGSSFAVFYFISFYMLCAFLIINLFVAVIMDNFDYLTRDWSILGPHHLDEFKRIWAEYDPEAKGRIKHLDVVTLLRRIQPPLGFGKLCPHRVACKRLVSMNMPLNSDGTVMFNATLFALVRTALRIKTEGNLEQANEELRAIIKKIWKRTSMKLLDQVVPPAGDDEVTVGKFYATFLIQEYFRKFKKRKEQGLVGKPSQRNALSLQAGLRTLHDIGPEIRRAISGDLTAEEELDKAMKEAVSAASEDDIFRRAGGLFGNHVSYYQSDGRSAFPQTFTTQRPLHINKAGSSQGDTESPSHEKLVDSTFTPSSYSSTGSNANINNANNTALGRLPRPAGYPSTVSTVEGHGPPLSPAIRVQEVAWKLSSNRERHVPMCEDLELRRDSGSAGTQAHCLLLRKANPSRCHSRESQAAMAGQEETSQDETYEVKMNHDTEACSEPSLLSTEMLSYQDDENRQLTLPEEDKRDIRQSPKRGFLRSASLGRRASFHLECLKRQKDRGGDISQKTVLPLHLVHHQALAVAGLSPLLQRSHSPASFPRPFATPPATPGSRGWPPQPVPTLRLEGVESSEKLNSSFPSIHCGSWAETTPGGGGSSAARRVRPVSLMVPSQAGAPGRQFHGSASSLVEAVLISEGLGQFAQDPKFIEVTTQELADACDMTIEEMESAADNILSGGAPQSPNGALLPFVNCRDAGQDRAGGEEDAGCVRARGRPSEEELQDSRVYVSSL
Chain of HEK-Cav1.2 (Q08289 whole entry partner): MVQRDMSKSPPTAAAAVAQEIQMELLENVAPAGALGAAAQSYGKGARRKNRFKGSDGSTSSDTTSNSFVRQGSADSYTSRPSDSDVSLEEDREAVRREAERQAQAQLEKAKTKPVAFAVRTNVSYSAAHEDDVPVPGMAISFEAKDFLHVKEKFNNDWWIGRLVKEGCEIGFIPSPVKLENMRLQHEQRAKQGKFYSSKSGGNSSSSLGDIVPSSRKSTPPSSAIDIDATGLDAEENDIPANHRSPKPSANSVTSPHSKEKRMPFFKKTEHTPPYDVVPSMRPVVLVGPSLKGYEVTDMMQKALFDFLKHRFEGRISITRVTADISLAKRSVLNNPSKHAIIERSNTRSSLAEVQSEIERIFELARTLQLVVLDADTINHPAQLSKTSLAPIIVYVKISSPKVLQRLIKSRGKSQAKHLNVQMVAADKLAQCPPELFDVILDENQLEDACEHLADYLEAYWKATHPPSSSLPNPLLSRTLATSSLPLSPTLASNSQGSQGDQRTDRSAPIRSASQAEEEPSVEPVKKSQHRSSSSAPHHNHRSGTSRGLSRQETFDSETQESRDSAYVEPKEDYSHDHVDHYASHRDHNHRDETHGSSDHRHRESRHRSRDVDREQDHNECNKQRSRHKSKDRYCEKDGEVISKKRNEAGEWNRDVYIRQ
Chain of HEK-Cav1.2 (P54289 25-946 partner limits assumed): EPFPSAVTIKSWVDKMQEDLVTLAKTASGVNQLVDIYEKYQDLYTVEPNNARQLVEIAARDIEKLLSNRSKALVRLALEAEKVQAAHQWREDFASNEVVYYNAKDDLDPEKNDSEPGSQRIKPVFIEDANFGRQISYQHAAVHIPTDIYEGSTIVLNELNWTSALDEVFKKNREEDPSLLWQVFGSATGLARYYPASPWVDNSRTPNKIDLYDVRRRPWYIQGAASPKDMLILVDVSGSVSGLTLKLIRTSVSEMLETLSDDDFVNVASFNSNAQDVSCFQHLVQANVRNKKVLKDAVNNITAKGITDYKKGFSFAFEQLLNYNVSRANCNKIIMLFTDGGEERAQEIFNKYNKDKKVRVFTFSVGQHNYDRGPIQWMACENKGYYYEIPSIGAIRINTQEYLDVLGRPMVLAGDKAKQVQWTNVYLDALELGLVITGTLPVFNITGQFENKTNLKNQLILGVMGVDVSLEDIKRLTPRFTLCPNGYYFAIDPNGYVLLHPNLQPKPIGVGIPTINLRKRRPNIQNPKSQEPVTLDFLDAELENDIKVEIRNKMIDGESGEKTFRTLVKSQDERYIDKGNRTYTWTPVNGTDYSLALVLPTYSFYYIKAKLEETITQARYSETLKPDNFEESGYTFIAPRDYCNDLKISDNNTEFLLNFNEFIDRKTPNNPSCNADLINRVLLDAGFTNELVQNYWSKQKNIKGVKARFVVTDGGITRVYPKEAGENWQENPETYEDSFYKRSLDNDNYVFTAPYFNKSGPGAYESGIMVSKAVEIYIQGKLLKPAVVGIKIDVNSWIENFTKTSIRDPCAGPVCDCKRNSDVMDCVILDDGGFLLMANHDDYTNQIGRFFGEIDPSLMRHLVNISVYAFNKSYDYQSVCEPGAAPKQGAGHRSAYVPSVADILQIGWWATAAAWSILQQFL
Chain of HEK-Cav1.2 (P54289 947-1103 partner limits assumed): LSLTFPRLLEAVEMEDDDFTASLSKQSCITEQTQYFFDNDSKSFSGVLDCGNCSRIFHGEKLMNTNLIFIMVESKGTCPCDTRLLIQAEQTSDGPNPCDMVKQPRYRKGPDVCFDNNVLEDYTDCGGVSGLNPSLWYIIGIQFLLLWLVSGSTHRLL
T3 sequence (P08913 whole entry): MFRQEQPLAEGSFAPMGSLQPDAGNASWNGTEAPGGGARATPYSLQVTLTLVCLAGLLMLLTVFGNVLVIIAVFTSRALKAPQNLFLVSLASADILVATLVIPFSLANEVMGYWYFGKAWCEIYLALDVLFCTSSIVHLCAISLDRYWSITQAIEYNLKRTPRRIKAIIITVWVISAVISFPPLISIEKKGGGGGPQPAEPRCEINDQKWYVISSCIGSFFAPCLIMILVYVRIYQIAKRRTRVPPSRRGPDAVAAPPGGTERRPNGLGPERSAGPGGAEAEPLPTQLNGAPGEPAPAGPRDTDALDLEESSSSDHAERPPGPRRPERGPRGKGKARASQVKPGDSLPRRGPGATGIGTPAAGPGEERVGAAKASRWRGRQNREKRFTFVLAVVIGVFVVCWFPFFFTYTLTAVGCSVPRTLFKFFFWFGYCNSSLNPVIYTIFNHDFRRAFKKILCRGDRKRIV

Sequence: APWHLSSQYSRT [CTP]
- Estimated IC50 [1]: N/C (Not calculable, inhibition >25% was not observed.)
- Estimated IC50 [2]: N/C (Not calculable, inhibition >25% was not observed.)
- Estimated IC50 [3]: N/C (key: N/C: Not calculable, inhibition >25% was not observed.)
- agonist or antagonist action [4]: no significant action as either an agonist or antagonist
- Estimated IC50 [5]: N/C (Not calculable, inhibition >25% was not observed.)
- Estimated IC50 [6]: N/C (Not calculable, inhibition >25% was not observed.)
- agonist or antagonist action [7]: no significant action as either an agonist or antagonist
